Assay results taken from PubChem BioAssay (NCI).
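Exposure lasted 48 hours, with cells grown in 96-well plates and compounds tested at five concentrations. Definition used: TGI = concentration required for complete inhibition of growth.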

Experiments:
Assay in all cases: NCI-60 cell line screen, 48 h
OVCAR-8 ovarian = tested on: OVCAR-8 ovarian
HCT-116 colon = tested on: HCT-116 colon
NCI-H460 lung = tested on: NCI-H460 lung
HL-60(TB) leukemia = tested on: HL-60(TB) leukemia
KM12 colon = tested on: KM12 colon
TK-10 renal = tested on: TK-10 renal
DU-145 prostate = tested on: DU-145 prostate
A498 renal = tested on: A498 renal
OVCAR-4 ovarian = tested on: OVCAR-4 ovarian
MDA-MB-231 breast = tested on: MDA-MB-231 breast
UO-31 renal = tested on: UO-31 renal
UACC-257 melanoma = tested on: UACC-257 melanoma
K-562 leukemia = tested on: K-562 leukemia
SK-MEL-5 melanoma = tested on: SK-MEL-5 melanoma
HOP-62 NSCLC = tested on: HOP-62 NSCLC
SF-295 CNS = tested on: SF-295 CNS
SK-OV-3 ovarian = tested on: SK-OV-3 ovarian
NCI-H522 lung = tested on: NCI-H522 lung
SK-MEL-2 melanoma = tested on: SK-MEL-2 melanoma

SMILES | TGI (OVCAR-8 ovarian) [µM] | TGI (HCT-116 colon) [µM] | TGI (NCI-H460 lung) [µM] | TGI (HL-60(TB) leukemia) [µM] | TGI (KM12 colon) [µM] | TGI (TK-10 renal) [µM] | TGI (DU-145 prostate) [µM] | TGI (A498 renal) [µM] | TGI (OVCAR-4 ovarian) [µM] | TGI (MDA-MB-231 breast) [µM] | TGI (UO-31 renal) [µM] | TGI (UACC-257 melanoma) [µM] | TGI (K-562 leukemia) [µM] | TGI (SK-MEL-5 melanoma) [µM] | TGI (HOP-62 NSCLC) [µM] | TGI (SF-295 CNS) [µM] | TGI (SK-OV-3 ovarian) [µM] | TGI (NCI-H522 lung) [µM] | TGI (SK-MEL-2 melanoma) [µM]
Cc1nc2ccccc2c(=O)n1NC(=O)c1ccccn1 | > 100 | > 100 | > 100 | > 100 | > 100 | > 100 | > 100 | > 100 | > 100 | > 100 | > 100 | > 100 | > 100 | > 100 | > 100 | > 100 | > 100 | > 100 | –
Cc1c2c(cc3c1C(=O)C(=O)C([C@@H](C)CO)=C3O)C(C)(C)CCC2 | > 100 | 93.1 | – | – | 34.2 | > 100 | > 100 | 98.9 | > 100 | > 100 | 38.6 | > 100 | > 100 | 86.9 | > 100 | > 100 | > 100 | 62.8 | 47.2
C1C2CC3CC1CC(c1nn4c(C56CC7CC(CC(C7)C5)C6)nnc4s1)(C2)C3 | – | > 100 | > 100 | > 100 | > 100 | > 100 | > 100 | > 100 | > 100 | > 100 | > 100 | – | > 100 | > 100 | > 100 | > 100 | > 100 | > 100 | > 100
Cc1nc(N)c(N2CCN(S(N)(=O)=O)CC2)c(=O)[nH]1 | > 100 | > 100 | > 100 | > 100 | > 100 | > 100 | > 100 | > 100 | > 100 | > 100 | > 100 | > 100 | > 100 | – | > 100 | > 100 | – | > 100 | > 100
CC(=O)OC1=NN=C2COC(c3ccccc3OC(C)=O)=NN2C1 | – | > 50 | > 50 | > 50 | > 50 | > 50 | > 50 | – | > 50 | > 50 | > 50 | > 50 | > 50 | 18.1 | > 50 | > 50 | > 50 | > 50 | > 50
CC(=O)O[C@H]1C(=O)[C@@]2(C)[C@H]([C@H](OC(=O)c3ccccc3)[C@]3(O)C[C@H](OC(=O)[C@H](O)[C@@H](NC(=O)c4ccc(N)cc4)c4ccccc4)C(C)=C1C3(C)C)[C@]1(OC(C)=O)CO[C@@H]1C[C@@H]2O | > 50 | > 50 | > 50 | 0.318 | > 50 | > 50 | 31.4 | > 50 | > 50 | > 50 | > 50 | – | 0.26 | > 50 | > 50 | > 50 | – | > 50 | –
CC1(C)C2CC(O)C1(C)CC2=O (stereo unspecified) | > 100 | > 100 | > 100 | > 100 | > 100 | > 100 | > 100 | – | > 100 | > 100 | > 100 | > 100 | > 100 | > 100 | > 100 | > 100 | > 100 | > 100 | –
O=S(=O)(O)CCSSCCS(=O)(=O)O | > 1000 | > 1000 | > 1000 | > 1000 | > 1000 | > 1000 | > 1000 | > 1000 | > 1000 | > 1000 | > 1000 | > 1000 | > 1000 | – | > 1000 | > 1000 | > 1000 | > 1000 | > 1000
CC(C)(C)c1cc(S(=O)(=O)O)c2oc(-c3ccccc3)cc(=O)c2c1 | > 100 | > 100 | > 100 | > 100 | > 100 | > 100 | > 100 | – | – | > 100 | > 100 | > 100 | > 100 | > 100 | > 100 | > 100 | – | > 100 | –
COc1ccc(N2C(=O)C3c4[nH]c5ccc(C)cc5c4C4CCC(C(C)(C)C)CC4C3C2=O)cc1 (stereo unspecified) | 25.1 | 40.5 | 49.3 | > 100 | > 100 | 45.1 | > 100 | – | 10.8 | > 100 | 40.3 | 77.8 | 41.2 | > 100 | 33.4 | 23.3 | 29.5 | > 100 | –
CSC1=N/C(=C\c2ccc(C)cc2)C(=O)N1 | > 100 | > 100 | – | > 100 | > 100 | > 100 | > 100 | – | > 100 | > 100 | > 100 | > 100 | – | – | > 100 | > 100 | > 100 | > 100 | > 100
Cc1cccc2nc(-c3ccccc3)cc(=O)n12 | > 100 | > 100 | > 100 | > 100 | > 100 | > 100 | > 100 | – | > 100 | > 100 | – | > 100 | > 100 | > 100 | > 100 | > 100 | > 100 | > 100 | –
O=[N+]([O-])/C(C(Cl)=C(Cl)Cl)=C1\Nc2ccc([N+](=O)[O-])cc2N1 | – | > 100 | > 100 | – | > 100 | > 100 | > 100 | > 100 | > 100 | > 100 | 27.5 | > 100 | > 100 | > 100 | > 100 | > 100 | > 100 | 63 | > 100
CCCN(CCc1ccc(-c2ccccc2)cc1)CCc1ccc2n[nH]nc2c1 | 36.3 | 18.1 | 22.1 | – | 34.1 | 25.7 | 23.9 | 36.2 | 33.3 | 28.1 | 22.4 | 17.1 | 18.4 | 15.8 | 26.3 | 27.5 | 28.5 | 25.9 | 33.4
Nc1cc(Cl)cc2cc(Cl)cnc12 | > 100 | > 100 | > 100 | > 100 | > 100 | > 100 | > 100 | > 100 | > 100 | > 100 | > 100 | > 100 | > 100 | > 100 | > 100 | > 100 | > 100 | > 100 | –
CN1CCC23c4c5ccc(Oc6nnnn6-c6ccccc6)c4OC2c2[nH]c4ccccc4c2CC3(O)C1C5 (stereo unspecified) | 9.6 | 3.45 | 3.66 | 3.69 | 7.68 | 3.35 | 19.6 | 6.3 | 7.53 | 4.16 | 3.18 | 3.32 | 3.86 | – | 12.8 | 15.3 | 25.4 | 4.01 | 3.28
O=C(Nc1ccc(Cl)cc1)c1cc(S(=O)(=O)Nc2n[nH]c(Nc3ccc4ccccc4c3)n2)c(SSc2cc(Cl)c(C(=O)Nc3ccc(Cl)cc3)cc2S(=O)(=O)Nc2n[nH]c(Nc3ccc4ccccc4c3)n2)cc1Cl | > 71.9 | 39.5 | 73.7 | > 63 | 50.4 | 60.8 | > 74.4 | 52.1 | 97.5 | 46.5 | 65.3 | > 96.4 | 47.3 | 40.6 | 80.6 | 58.3 | 66.5 | 50.8 | –
CN(CCC(=O)N1CC(CCl)c2ccc([N+](=O)[O-])cc21)CCC(=O)N1CC(CCl)c2ccc([N+](=O)[O-])cc21 (stereo unspecified) | 37.6 | 26.1 | > 100 | – | 18.3 | 32 | > 100 | 35.3 | > 100 | 44.5 | – | 21.6 | 47.7 | 24.8 | > 100 | 39.5 | > 100 | 21.7 | 26
Cc1ccc2c(c1)C(=O)C1(C2)Cc2c(C)cccc2C1=O (stereo unspecified) | > 100 | > 100 | > 100 | > 100 | > 100 | > 100 | > 100 | > 100 | > 100 | > 100 | > 100 | > 100 | > 100 | > 100 | > 100 | > 100 | > 100 | > 100 | –
OC1=C2c3ccccc3NC2Oc2cc(F)ccc21 (stereo unspecified) | > 100 | 28.7 | 38.5 | – | 31.2 | 47.1 | 37.5 | 32.4 | 50.6 | 33 | 28.2 | 41.4 | 48.5 | 28.2 | 33.2 | 29.5 | 26.6 | 52.8 | 41.8
Cc1c(N=Nc2ccccc2)c(-c2ccccc2)n(C2OC(CO)C(O)C(O)C2O)c(=S)c1C#N (stereo unspecified) | > 100 | – | 97.6 | > 100 | 11.6 | 26.9 | 41.7 | 32.5 | 26.1 | 44.4 | 39.4 | – | > 100 | – | 23.2 | 55.8 | 23 | 14.1 | 21.8
CCN(CCCl)c1cc(CN(C)C)cc(NC(=O)c2ccc(C(=O)Nc3cc(CN(C)C)cc(N(CC)CCCl)c3)cc2)c1 | 1.63 | 1.06 | 1.54 | 1.09 | 1.36 | 2.57 | 13.7 | – | 9.46 | 1.36 | 11.6 | 1.32 | 1.6 | 0.328 | 0.966 | 1.21 | 5.82 | 0.234 | 3.23
CCCCNC(=S)Nc1nc(C(=O)NNC(=S)NCC)cs1 | > 100 | > 100 | – | – | > 100 | > 100 | > 100 | > 100 | > 100 | > 100 | > 100 | > 100 | – | > 100 | > 100 | > 100 | > 100 | > 100 | > 100
CC(=O)OCC(OC(C)=O)C1C[C@H]2O[C@@H]3[C@H](C[C@H]2O1)O[C@@]1(C[C@@H]3C)C[C@H](C)[C@@H]2O[C@]3(C[C@@H]2O1)C[C@H]1O[C@H]2[C@H](C)[C@H]4OC(=O)C[C@H]5CC[C@@H]6OC7[C@H]8O[C@]9(CC[C@H]%10CC(=O)[C@H](CC[C@H]%11C[C@@H](C)C(=O)C(C[C@@H]4O[C@H]2C[C@H]1O3)O%11)O%10)CC8O[C@@H]7[C@@H](O9)[C@H]6O5 (stereo partly specified) | > 0.258 | > 0.39 | > 1 | > 1 | > 0.2 | > 1 | > 1 | > 1 | > 1 | > 1 | > 1 | – | > 1 | > 1 | > 1 | – | > 0.22 | 0.00322 | > 1
O=C(CC(O)(C(F)(F)F)C(F)(F)F)C(c1ccccc1)C(O)(C(F)(F)F)C(F)(F)F (stereo unspecified) | > 100 | > 100 | > 100 | – | > 100 | > 100 | > 100 | > 100 | > 100 | > 100 | > 100 | > 100 | > 100 | > 100 | – | > 100 | 88.8 | > 100 | > 100
